Assay results as given in patent publication US20140094387A1, “SUV39H2 AS A TARGET GENE FOR CANCER THERAPY AND DIAGNOSIS” (ONCOTHERAPY SCIENCE, INC., priority 2011, published 2014).

Tested on: SUV39H2
Experiment: Quantitative real-time PCR of SUV39H2 expression after siRNA transfection
Type: cell-based, human
Details: A549 and SW780 cells; siRNA 100 nM; normalized by GAPDH, relative to siEGFP (siEGFP=1); vs control siRNAs siEGFP and siNC

Substance	SUV39H2 mRNA expression level
siSUV39H2#2: siRNA duplex targeting human SUV39H2; target 5' CUGGAAUCAGCUUAGUCAA 3' (SEQ ID NO: 20); sense SEQ ID NO: 17, antisense SEQ ID NO: 18 (sense CUGGAAUCAGCUUAGUCAATT; antisense UUGACUAAGCUGAUUCCAGTT; chemistry not given here)	suppression of endogenous SUV39H2 expression
siSUV39H2#1: siRNA duplex targeting human SUV39H2; target 5' CUUUGGUUGUUCAUGCACA 3' (SEQ ID NO: 19); sense SEQ ID NO: 15, antisense SEQ ID NO: 16 (sense CUUUGGUUGUUCAUGCACATT; antisense UGUGCAUGAACAACCAAAGTT; chemistry not given here)	suppression of endogenous SUV39H2 expression
